Assay results: article PMC6270420, “Antibacterial Activity of Salicylanilide 4-(Trifluoromethyl)benzoates” (Molecules, 2013)
Values after ≈ are worked out from the molar mass of the structure shown. Read-outs that look alike come from different tables or passages of the source.

Assays:
[1] = test system: Mtb. 7357/1988; assay: microbe, parasite or virus in culture; type: cell-based; details: Mycobacterium tuberculosis, read-out: MIC Mtb. 7357/1988
[2] = test system: HepG2 cells; assay: Cytotoxicity evaluation (CellTiter 96 MTS); type: cell-based, human; details: read-out: IC50 HepG2
Description: Seven esters and their parent salicylanilides with the most robust antimicrobial activity were tested for cytotoxicity in the human hepatocellular liver carcinoma cell line HepG2 (passages 21–24; ECACC, Salisbury, UK) using a standard colorimetric method measuring a tetrazolium salt reduction (CellTiter(R) 96 AQueous One Solution Assay, Promega G3580, Madison, WI, USA).
The cells were routinely cultured in Minimum Essentials Eagle Medium (Sigma-Aldrich, Darmstadt, Germany) supplemented with 10% foetal bovine serum (PAA; Biotech, Prague, Czech Republic), 1% of L-glutamine solution (Sigma-Aldrich), and non-essential amino acids solution (Sigma-Aldrich) in a humidified atmosphere containing 5% CO2 at 37 °C. For subculturing, the cells were harvested after trypsin/EDTA (Sigma-Aldrich) treatment at 37 °C. The cells treated with the tested substances were used as experimental groups. Untreated HepG2 cells were used as control groups.
The cells were seeded in density 1 × 10^4 cells per well in a 96-well plate with microscopic control. Next day, the cells were treated with each of the tested substances. […] The most of the tested compounds were prepared in incubation concentrations of 0.01–20 µM in triplicates. 4-(Trifluoromethyl)benzoic acid was applied in the concentrations of 10–4,000 µM in triplicates. The following types of controls were included: determination of 100% viability and 0% viability (the cells treated by 10% DMSO), no cell control and vehiculum controls. These checking samples were prepared in triplicates.
The treated cells were incubated together with controls at 37 °C for 24 h in 5% CO2 atmosphere. After this time reagent from the kit CellTiter 96 AQueous One Solution Cell Proliferation Assay was added. The CellTiter 96 assay is based on the reduction of tetrazolium salt MTS [3-(4,5-dimethylthiazol-2-yl)-5-(3-carboxymethoxyphenyl)-2-(4-sulfophenyl)-2H-tetrazolium] to water-soluble formazan dye by metabolically active cells. The reduction of the reagent is attributed to availability of NADH or NADPH. The decline in levels of these metabolically important compounds in the cell causes that the production of formazan is reduced. The tested plate was incubated for 2 h at 37 °C and 5% CO2 and after this time, the absorbance was recorded at 490 nm using a 96-well plate reader (TECAN, Infinite M200, Grödig, Austria).
The results were expressed as inhibitory concentration which is necessary to inhibit cell viability to 50% from the maximal (control) viability (IC50). A standard toxicological parameter IC50 was calculated in each of the tested substances using GraphPad Prism software (version 5.02; GraphPad Software Inc., San Diego, CA, USA).

[3] = test system: Mycobacterium avium 330/88; assay: Antimycobacterial MIC micromethod; type: cell-based
[4] = test system: Mtb. Praha 1; assay: microbe, parasite or virus in culture; type: cell-based; details: Mycobacterium tuberculosis, read-out: MIC Mtb. Praha 1
[5] = test system: Mtb. Praha 131 (XDR-TB); assay: microbe, parasite or virus in culture; type: cell-based; details: Mycobacterium tuberculosis, read-out: MIC Mtb. Praha 131 (XDR-TB)
[6] = test system: Mtb. 9449/2006; assay: microbe, parasite or virus in culture; type: cell-based; details: Mycobacterium tuberculosis, read-out: MIC Mtb. 9449/2006
[7] = test system: Mycobacterium tuberculosis 331/88 (H37Rv); assay: Antimycobacterial MIC micromethod, Šula's medium; type: cell-based; details: read-out: MIC Mtb. 331/88
[8] = test system: M. kansasii 6509/96 (clinically isolated strain); assay: Antimycobacterial MIC micromethod; type: cell-based; details: Mycobacterium kansasii, read-out: MIC M. kansasii 6509/96
[9] = test system: Mycobacterium kansasii 235/80; assay: Antimycobacterial MIC micromethod; type: cell-based; details: read-out: MIC M. kansasii 235/80
[10] = test system: Mtb. 53/2009; assay: microbe, parasite or virus in culture; type: cell-based; details: Mycobacterium tuberculosis, read-out: MIC Mtb. 53/2009
[11] = test system: Mtb. 234/2005; assay: microbe, parasite or virus in culture; type: cell-based; details: Mycobacterium tuberculosis, read-out: MIC Mtb. 234/2005
[12] = target: T1, mycobacterial isocitrate lyase (ICL1, Rv0467) (Mycobacterium tuberculosis, UniProt P9WKK7); assay: Isocitrate lyase inhibition assay (ICL1); type: biochemical, Mycobacterium tuberculosis H37Rv; details: 10 μmol/L; read-out: % ICL inhibition at 10 μmol/L (± standard deviation)
T1 construct: His tag (from pET-28b(+)); made in house; host or cells: E. coli BL21(DE3), pET-28b(+) plasmid
T1 sequence (P9WKK7 1-428): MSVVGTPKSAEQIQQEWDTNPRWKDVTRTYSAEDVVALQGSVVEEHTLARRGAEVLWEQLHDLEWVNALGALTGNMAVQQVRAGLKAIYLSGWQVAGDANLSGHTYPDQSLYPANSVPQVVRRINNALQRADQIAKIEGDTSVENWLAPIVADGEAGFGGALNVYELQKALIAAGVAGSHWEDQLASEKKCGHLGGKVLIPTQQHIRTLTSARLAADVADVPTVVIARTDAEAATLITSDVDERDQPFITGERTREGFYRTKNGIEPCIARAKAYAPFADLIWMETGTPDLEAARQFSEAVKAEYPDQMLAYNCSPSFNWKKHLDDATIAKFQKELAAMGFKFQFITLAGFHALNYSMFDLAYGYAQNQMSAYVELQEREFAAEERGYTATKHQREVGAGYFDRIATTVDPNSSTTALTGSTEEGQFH

[13] = test system: Gram-positive cocci including MRSA; assay: Antibacterial microdilution, summary for Gram-positive cocci; type: cell-based; details: Staphylococcus aureus, read-out: MICs against Gram-positive cocci
Description: (§1) The in vitro antibacterial activity was assayed against eight Gram-positive and Gram-negative strains: Staphylococcus aureus CCM 4516/08, methicillin-resistant Staphylococcus aureus H 5996/08 (MRSA), Staphylococcus epidermidis H 6966/08, Enterococcus sp. J 14365/08; Escherichia coli CCM 4517, Klebsiella pneumoniae D 11750/08, ESBL-positive Klebsiella pneumoniae J 14368/08, and Pseudomonas aeruginosa CCM 1961.
(§2) The microdilution broth method modified according to standard M07-A07 in Mueller-Hinton broth (HiMedia Laboratories, Mumbai, India) adjusted to pH 7.4 (±0.2) was used. The tested compounds were dissolved in DMSO to the final concentrations ranging from […]. Benzylpenicillin (penicillin G) was used as a comparative drug. Bacterial inoculum in sterile water was prepared to match 0.5 McFarland scale ([…]). The minimum inhibitory concentrations were assayed as 90% (IC90) or higher reduction of growth when compared to the control. The determination of results was performed visually and spectrophotometrically (at 540 nm). The values of MICs were determined after 24 and 48 h of incubation in the darkness at 35 °C (±0.1) in a humid atmosphere.

[14] = test system: Staphylococcus epidermidis H 6966/08; assay: Antibacterial microdilution broth method; type: cell-based; details: read-out: MIC/IC90 S. epidermidis H 6966/08
Description: as §1, §2

[15] = test system: Enterococcus sp. J 14365/08; assay: Antibacterial microdilution broth method; type: cell-based; details: read-out: MIC/IC90 Enterococcus sp. J 14365/08
Description: as §1, §2

[16] = test system: Escherichia coli CCM 4517; assay: Antibacterial microdilution broth method; type: cell-based; details: read-out: MIC/IC90 E. coli CCM 4517
Description: as §1, §2

[17] = test system: Staphylococcus aureus CCM 4516/08; assay: Antibacterial microdilution broth method; type: cell-based; details: read-out: MIC/IC90 S. aureus CCM 4516/08
Description: as §1, §2

[18] = test system: methicillin-resistant Staphylococcus aureus H 5996/08 (MRSA); assay: Antibacterial microdilution broth method; type: cell-based; details: read-out: MIC/IC90 MRSA H 5996/08
Description: as §1, §2

Structure (SMILES) | MIC ([1]; 336 h) [µM] | MIC ([1]; 504 h) [µM] | IC50 ([2]; Homo sapiens, HepG2, 24 h) [nM] | MIC ([3]; 330/88, 336 h, 14 d) [µM] | MIC ([3]; 330/88, 504 h, 21 d) [µM] | MIC ([4]; 336 h) [µM] | MIC ([4]; 504 h) [µM] | MIC ([5]; 336 h) [µM] | MIC ([5]; 504 h) [µM] | MIC ([6]; 336 h) [µM] | MIC ([6]; 504 h) [µM] | MIC ([7]; 336 h, 14 d) [µM] | MIC ([7]; 504 h, 21 d) [µM] | MIC ([8]; 168 h, 7 d) [µM] | MIC ([8]; 336 h, 14 d) [µM] | MIC ([8]; 504 h, 21 d) [µM] | MIC ([9]; 235/80, 168 h, 7 d) [µM] | MIC ([9]; 235/80, 336 h, 14 d) [µM] | MIC ([9]; 235/80, 504 h, 21 d) [µM] | inhibition at 10 µM [12] [%] | other results
O=C(Oc1cc(Cl)ccc1C(=O)Nc1ccc(Cl)c(Cl)c1)c1ccc(C(F)(F)F)cc1 [1f] | 2 (≈ 0.977 µg/mL) | 2 (≈ 0.977 µg/mL) | 4460 | 2 (≈ 0.977 µg/mL) | 8 (≈ 3.91 µg/mL) | 1 (≈ 0.489 µg/mL) | 2 (≈ 0.977 µg/mL) | 1 (≈ 0.489 µg/mL) | 2 (≈ 0.977 µg/mL) | 2 (≈ 0.977 µg/mL) | 2 (≈ 0.977 µg/mL) | 1 (≈ 0.489 µg/mL) | 2 (≈ 0.977 µg/mL) | 1 (≈ 0.489 µg/mL) | 2 (≈ 0.977 µg/mL) | 4 (≈ 1.95 µg/mL) | 1 (≈ 0.489 µg/mL) | 2 (≈ 0.977 µg/mL) | 4 (≈ 1.95 µg/mL) | 17 ± 1.6 | MIC ([10]; 336 h): 2 µM (≈ 0.977 µg/mL); MIC ([10]; 504 h): 2 µM (≈ 0.977 µg/mL); MIC ([11]; 336 h): 1 µM (≈ 0.489 µg/mL); MIC ([11]; 504 h): 2 µM (≈ 0.977 µg/mL)
O=C(Oc1ccc(Cl)cc1C(=O)Nc1cccc(Br)c1)c1ccc(C(F)(F)F)cc1 [1g] | 2 (≈ 0.997 µg/mL) | 2 (≈ 0.997 µg/mL) | 2630 | 2 (≈ 0.997 µg/mL) | 8 (≈ 3.99 µg/mL) | 1 (≈ 0.499 µg/mL) | 2 (≈ 0.997 µg/mL) | 1 (≈ 0.499 µg/mL) | 2 (≈ 0.997 µg/mL) | 1 (≈ 0.499 µg/mL) | 2 (≈ 0.997 µg/mL) | 1 (≈ 0.499 µg/mL) | 2 (≈ 0.997 µg/mL) | 1 (≈ 0.499 µg/mL) | 4 (≈ 1.99 µg/mL) | 4 (≈ 1.99 µg/mL) | 2 (≈ 0.997 µg/mL) | 4 (≈ 1.99 µg/mL) | 4 (≈ 1.99 µg/mL) | ≥ 20 | MIC ([10]; 336 h): 2 µM (≈ 0.997 µg/mL); MIC ([10]; 504 h): 2 µM (≈ 0.997 µg/mL); MIC ([11]; 336 h): 1 µM (≈ 0.499 µg/mL); MIC ([11]; 504 h): 2 µM (≈ 0.997 µg/mL)
O=C(Oc1cc(Cl)ccc1C(=O)Nc1cccc(Br)c1)c1ccc(C(F)(F)F)cc1 [1h] |  |  |  | 8 (≈ 3.99 µg/mL) | 16 (≈ 7.98 µg/mL) |  |  |  |  |  |  | 4 (≈ 1.99 µg/mL) | 8 (≈ 3.99 µg/mL) | 2 (≈ 0.997 µg/mL) | 8 (≈ 3.99 µg/mL) | 8 (≈ 3.99 µg/mL) | 4 (≈ 1.99 µg/mL) | 8 (≈ 3.99 µg/mL) | 8 (≈ 3.99 µg/mL) | ≥ 20 | MIC [13]: < 1 µM; MIC ([14]; H6966/08, 24 h): 0.49 µM (≈ 0.244 µg/mL); MIC ([14]; H6966/08, 48 h): 0.98 µM (≈ 0.489 µg/mL); MIC ([15]; SP.J14365/08, 24 h): 31.2 µM (≈ 15.6 µg/mL); MIC ([15]; SP.J14365/08, 48 h): 250 µM (≈ 125 µg/mL); MIC ([16]; CCM4517, 24 h): > 500 µM; MIC ([16]; CCM4517, 48 h): > 500 µM; MIC ([17]; CCM4516, 24 h): 0.98 µM (≈ 0.489 µg/mL); MIC ([17]; CCM4516, 48 h): 0.98 µM (≈ 0.489 µg/mL); MIC ([18]; 24 h): 0.49 µM (≈ 0.244 µg/mL); MIC ([18]; 48 h): 0.98 µM (≈ 0.489 µg/mL)
O=C(Oc1ccc(Cl)cc1C(=O)Nc1ccc(F)cc1)c1ccc(C(F)(F)F)cc1 [1m] |  |  |  | 16 (≈ 7 µg/mL) | 32 (≈ 14 µg/mL) |  |  |  |  |  |  | 8 (≈ 3.5 µg/mL) | 8 (≈ 3.5 µg/mL) | 8 (≈ 3.5 µg/mL) | 16 (≈ 7 µg/mL) | 16 (≈ 7 µg/mL) | 4 (≈ 1.75 µg/mL) | 16 (≈ 7 µg/mL) | 16 (≈ 7 µg/mL) | ≥ 20 | MIC ([14]; H6966/08, 24 h): 31.2 µM (≈ 13.7 µg/mL); MIC ([14]; H6966/08, 48 h): > 500 µM; MIC ([15]; SP.J14365/08, 24 h): 500 µM (≈ 219 µg/mL); MIC ([15]; SP.J14365/08, 48 h): > 500 µM; MIC ([16]; CCM4517, 24 h): > 500 µM; MIC ([16]; CCM4517, 48 h): > 500 µM; MIC ([17]; CCM4516, 24 h): 7.81 µM (≈ 3.42 µg/mL); MIC ([17]; CCM4516, 48 h): 7.81 µM (≈ 3.42 µg/mL); MIC ([18]; 24 h): 15.6 µM (≈ 6.84 µg/mL); MIC ([18]; 48 h): 15.6 µM (≈ 6.84 µg/mL)
O=C(Nc1ccc(Cl)c(Cl)c1)c1cc(Cl)ccc1O [SAL-1] |  |  |  |  |  |  |  |  |  |  |  |  |  |  |  |  |  |  |  |  | IC50 ([2]; 24 h, cytotoxicity): 840 nM
